Laboratory results: article doi:10.1101/208439v1 (biorxiv, 2017)
Read-outs that look alike come from different tables or passages of the source.

Assays:
[1] = target: T1, SETD2 (Homo sapiens, UniProt Q9BYW2); experiment: HotSpot [3H]SAM filter-binding methyltransferase assay; format: biochemical; design: residues 1434-1711, N-terminal GST fusion, E. coli
T1 sequence (Q9BYW2 1434-1711): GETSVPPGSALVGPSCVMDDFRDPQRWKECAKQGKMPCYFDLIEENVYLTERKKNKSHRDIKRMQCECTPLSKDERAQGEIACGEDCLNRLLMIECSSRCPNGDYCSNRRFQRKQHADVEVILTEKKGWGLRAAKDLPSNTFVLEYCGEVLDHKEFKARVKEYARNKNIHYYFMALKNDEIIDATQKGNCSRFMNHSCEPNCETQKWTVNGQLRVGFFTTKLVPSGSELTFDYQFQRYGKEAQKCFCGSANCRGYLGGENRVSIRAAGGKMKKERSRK

[2] = target: T2, NSD2 (Homo sapiens, UniProt O96028, T1150A); experiment: as above; format: biochemical
T2 construct: full length (residues 2-1365), N-terminal His tag, insect cell/baculovirus
T2 sequence (O96028 2-1365 T1150A): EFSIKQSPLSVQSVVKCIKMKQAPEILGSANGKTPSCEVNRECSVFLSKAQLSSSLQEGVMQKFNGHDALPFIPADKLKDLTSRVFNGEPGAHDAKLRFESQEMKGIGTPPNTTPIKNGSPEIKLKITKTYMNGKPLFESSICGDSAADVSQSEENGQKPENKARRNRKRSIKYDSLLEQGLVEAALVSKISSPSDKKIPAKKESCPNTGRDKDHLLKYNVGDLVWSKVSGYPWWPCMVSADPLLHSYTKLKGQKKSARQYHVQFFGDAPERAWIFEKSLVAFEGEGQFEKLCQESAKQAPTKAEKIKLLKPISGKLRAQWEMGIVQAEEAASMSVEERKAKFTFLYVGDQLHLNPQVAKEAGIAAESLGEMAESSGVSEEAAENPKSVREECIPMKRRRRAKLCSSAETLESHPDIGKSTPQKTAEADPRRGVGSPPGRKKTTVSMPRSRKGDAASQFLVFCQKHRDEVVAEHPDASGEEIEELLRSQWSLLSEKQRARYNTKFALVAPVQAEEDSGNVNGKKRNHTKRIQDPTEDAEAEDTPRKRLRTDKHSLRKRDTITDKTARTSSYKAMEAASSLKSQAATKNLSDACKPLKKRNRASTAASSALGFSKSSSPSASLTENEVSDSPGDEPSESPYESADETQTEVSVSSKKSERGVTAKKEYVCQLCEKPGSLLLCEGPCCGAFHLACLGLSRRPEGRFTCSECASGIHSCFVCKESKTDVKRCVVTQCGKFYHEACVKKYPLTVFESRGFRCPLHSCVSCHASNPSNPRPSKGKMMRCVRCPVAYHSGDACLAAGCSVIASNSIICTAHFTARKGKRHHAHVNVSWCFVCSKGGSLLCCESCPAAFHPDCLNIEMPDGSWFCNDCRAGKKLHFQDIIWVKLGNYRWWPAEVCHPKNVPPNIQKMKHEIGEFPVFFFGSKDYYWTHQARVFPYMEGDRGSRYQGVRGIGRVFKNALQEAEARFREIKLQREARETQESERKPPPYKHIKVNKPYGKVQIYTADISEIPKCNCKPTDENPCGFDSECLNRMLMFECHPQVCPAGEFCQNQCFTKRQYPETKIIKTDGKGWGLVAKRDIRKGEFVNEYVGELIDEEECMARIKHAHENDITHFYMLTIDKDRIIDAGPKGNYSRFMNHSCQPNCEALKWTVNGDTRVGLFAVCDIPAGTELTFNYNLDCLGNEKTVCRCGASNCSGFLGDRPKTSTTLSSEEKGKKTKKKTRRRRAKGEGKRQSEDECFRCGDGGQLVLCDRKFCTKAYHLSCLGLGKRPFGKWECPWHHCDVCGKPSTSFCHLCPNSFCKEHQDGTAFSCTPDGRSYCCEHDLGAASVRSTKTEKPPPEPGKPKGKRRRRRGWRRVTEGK

[3] = nucleosomes, […] SAM, pH […] MgCl2, […] DTT, […] °C, single experiment

IC50 [1] [nM] | IC50 [2, 3] [nM] | IC50 [1, 3] [nM] | IC50 [2] [nM] | Structure (SMILES)
210 | 170 |  |  | O=C1C(Cl)=C(NCCN2CCOCC2)C(=O)c2ncccc21 [DA3003-1]
 | 8000 | 13000 |  | COc1cccc(-n2nc(C(=O)O)cc2-c2ccc(C3CCCCC3)c(Cl)c2)c1 [TC LPA5 4]
3300 |  |  | 2300 | CC1(C)CCC(CN2CCN(c3ccc(C(=O)NS(=O)(=O)c4ccc(NCC5CCOCC5)c([N+](=O)[O-])c4)c(Oc4cnc5[nH]ccc5c4)c3)CC2)=C(c2ccc(Cl)cc2)C1 [ABT-199]
